Measured values reported in article PMC6864818, “Antioxidant, Xanthine Oxidase, α-Amylase and α-Glucosidase Inhibitory Activities of Bioactive Compounds from Rumex crispus L. Root” (Molecules, 2019).
Values after ≈ are worked out from the molar mass of the structure shown. Values joined by “and” are separate entries in the source; they are usually repeats but may differ in a detail not shown here. Equal entries are not always repeated. Where two headings read alike, the source gives them in different places. Marks after values point to notes of the source that are not given here.

Columns and labels:
[1] = ABTS radical cation decolorization assay; settings: ABTS radical scavenging; for IC50: value in brackets
Experimental: (§1) Antioxidant activity of the isolated compounds was determined using DPPH (2,2-diphenyl-1-picrylhydrazyl) radical scavenging assay, ABTS (2,2′-azinobis-(3-ethylbenzothiazoline-6-sulfonic acid)) radical cation decolorization assay, ferric reducing antioxidant power test (FRAP) following previous study [37, 38, 39] with slight modifications.

[2] = DPPH radical scavenging assay; settings: for IC50: value in brackets
Experimental: as §1

[3] = ferric reducing antioxidant power test (FRAP); settings: for IC50: value in brackets
Experimental: as §1

xanthine oxidase [4] = biological target: T1, xanthine oxidase (Homo sapiens, UniProt P47989); experiment: Xanthine oxidase inhibition (XOD), spectrophotometric; type: biochemical
α-glucosidase = biological target: T2, α-glucosidase (Saccharomyces cerevisiae, UniProt P53341); experiment: α-Glucosidase inhibition (AGI), pNPG substrate; type: biochemical
T2 construct: purchased Sigma-Aldrich
Experimental: The α-glucosidase inhibitory activity of isolated fractions was assayed using a synthetic substrate p-nitrophenyl-α-D-glucopyranoside (pNPG). […] (Table 5).
The anti-α-glucosidase activity of C1–C3 was evaluated using a method described previously with some modifications. In brief, an amount of 20 µL methanolic stock solution of isolated compounds was pre-mixed with an equal volume of 0.1 M potassium phosphate buffer (pH 7) and 40 µL of α-glucosidase (from Saccharomyces cerevisiae, Sigma-Aldrich, St. Louis, MO, USA) enzyme solution (0.5 U/mL in 0.1 M potassium phosphate buffer, pH 7). After 6 min incubation at 25 °C, a 20 µL aliquot of 5 mM p-nitrophenyl-α-D-glucopyranoside (pNPG) substrate (in 0.1 M potassium phosphate buffer, pH 7) was added to each reaction and the mixture was incubated for another 8 min. The reaction was terminated by adding 100 µL of 0.2 M Na2CO3, and absorbance was recorded at 405 nm.

xanthine oxidase [5] = biological target: T1, xanthine oxidase; settings: modified xanthine oxidase inhibition methods; ref [33]; cited from earlier work

T2 sequence (P53341 whole entry): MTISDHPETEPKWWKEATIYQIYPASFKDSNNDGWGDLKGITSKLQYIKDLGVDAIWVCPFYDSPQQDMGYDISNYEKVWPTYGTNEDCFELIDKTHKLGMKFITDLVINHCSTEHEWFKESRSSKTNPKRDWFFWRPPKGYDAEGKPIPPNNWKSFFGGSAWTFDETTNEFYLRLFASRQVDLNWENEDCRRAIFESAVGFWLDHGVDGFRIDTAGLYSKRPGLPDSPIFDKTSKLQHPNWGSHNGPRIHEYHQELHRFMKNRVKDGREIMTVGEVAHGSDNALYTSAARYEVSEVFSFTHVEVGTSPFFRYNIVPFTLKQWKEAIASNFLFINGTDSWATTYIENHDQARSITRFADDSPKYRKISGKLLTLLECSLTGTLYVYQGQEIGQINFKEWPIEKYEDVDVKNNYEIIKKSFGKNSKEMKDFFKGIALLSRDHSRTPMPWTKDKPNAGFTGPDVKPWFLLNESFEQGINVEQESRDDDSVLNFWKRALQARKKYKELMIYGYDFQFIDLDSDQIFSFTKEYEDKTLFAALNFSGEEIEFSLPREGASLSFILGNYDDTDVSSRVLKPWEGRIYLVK
T1 sequence (P47989 whole entry, species assumed): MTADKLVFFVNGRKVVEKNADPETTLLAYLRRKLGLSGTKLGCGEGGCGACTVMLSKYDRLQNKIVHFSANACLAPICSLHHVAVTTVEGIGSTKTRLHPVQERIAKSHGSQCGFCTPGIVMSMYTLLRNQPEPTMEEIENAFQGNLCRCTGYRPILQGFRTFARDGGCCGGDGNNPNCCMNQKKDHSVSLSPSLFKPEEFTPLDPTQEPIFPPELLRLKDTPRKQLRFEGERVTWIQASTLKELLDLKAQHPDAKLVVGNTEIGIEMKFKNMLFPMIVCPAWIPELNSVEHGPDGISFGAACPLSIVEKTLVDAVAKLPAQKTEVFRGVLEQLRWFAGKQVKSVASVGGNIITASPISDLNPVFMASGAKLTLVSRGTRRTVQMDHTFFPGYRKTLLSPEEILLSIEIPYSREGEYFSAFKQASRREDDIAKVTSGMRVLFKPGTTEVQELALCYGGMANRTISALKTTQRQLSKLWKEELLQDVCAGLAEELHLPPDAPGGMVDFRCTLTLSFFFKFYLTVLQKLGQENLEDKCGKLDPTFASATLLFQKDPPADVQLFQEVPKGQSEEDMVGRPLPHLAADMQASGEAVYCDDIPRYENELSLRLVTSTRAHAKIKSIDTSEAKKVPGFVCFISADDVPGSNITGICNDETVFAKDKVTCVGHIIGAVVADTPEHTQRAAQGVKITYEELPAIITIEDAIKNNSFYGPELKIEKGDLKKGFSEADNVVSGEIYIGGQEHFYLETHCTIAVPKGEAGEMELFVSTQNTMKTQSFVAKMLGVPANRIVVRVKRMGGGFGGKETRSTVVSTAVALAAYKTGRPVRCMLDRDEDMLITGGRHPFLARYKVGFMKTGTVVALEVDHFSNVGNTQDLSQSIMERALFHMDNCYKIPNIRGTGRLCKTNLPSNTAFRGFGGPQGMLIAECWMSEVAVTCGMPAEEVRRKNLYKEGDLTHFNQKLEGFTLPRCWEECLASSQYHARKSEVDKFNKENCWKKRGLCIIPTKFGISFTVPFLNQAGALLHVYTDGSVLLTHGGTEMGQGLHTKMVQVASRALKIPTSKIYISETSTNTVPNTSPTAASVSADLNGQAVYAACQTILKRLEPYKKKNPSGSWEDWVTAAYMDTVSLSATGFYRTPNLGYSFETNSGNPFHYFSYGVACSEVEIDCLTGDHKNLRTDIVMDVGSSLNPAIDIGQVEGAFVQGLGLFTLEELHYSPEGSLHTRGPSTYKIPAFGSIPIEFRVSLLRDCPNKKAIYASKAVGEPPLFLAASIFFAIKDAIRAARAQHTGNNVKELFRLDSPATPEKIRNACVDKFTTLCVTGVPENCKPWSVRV

With Cc1cc(C(C)(C)C)c(O)c(C(C)(C)C)c1 [BHT, reference compound] the “IC50 ABTS” value [1] was 46.9 ± 0.9^b µg/mL, the IC50 [1] was 213 µM and the “IC50 DPPH” value [2] was 19.4 µg/mL and 19.2 ± 0.3^b µg/mL. The IC50 [2] was 87.1 µM, the “IC50 FRAP” value [3] was 422.1 ± 1.1^b µg/mL and the IC50 [3] was 1920 µM.

For Cc1cc(O)c2c(c1)C(=O)c1cccc(O)c1C2=O [Fraction C2, 1,8-dihydroxy-3-methylanthraquinone], the IC50 (xanthine oxidase [4]) was 143 µM, the IC50 (xanthine oxidase [4]; value in brackets) was 143 µM and the IC50 (α-glucosidase; pNPG) was 79.1 µM. For the same molecule, the IC50 (α-glucosidase; value in brackets) was 79.1 µM, the “IC50 ABTS” value [1] was 34.3 ± 0.7^c µg/mL and the IC50 [1] was 135 µM. The “IC50 DPPH” value [2] was 10.0 ± 0.3^c µg/mL, the “IC50 DPPH” value ([2]; listed as 1) was 9.8 µg/mL (≈ 38.5 µM) and the IC50 [2] was 39.4 µM. The “IC50 FRAP” value [3] was 312.6 ± 6.3^c µg/mL and the IC50 [3] was 1230 µM.

For COc1cc(O)c2c(c1)C(=O)c1cc(C)cc(O)c1C2=O [Fraction C3, 1,8-dihydroxy-3-methoxy-6-methylanthraquinone], the IC50 (xanthine oxidase [4]) was 158 µM, the IC50 (xanthine oxidase [4]; value in brackets) was 158 µM and the IC50 (α-glucosidase; pNPG) was 66.5 µM. For the same molecule, the IC50 (α-glucosidase; value in brackets) was 66.5 µM, the “IC50 ABTS” value [1] was 44.8 ± 0.8^b µg/mL and the IC50 [1] was 158 µM. The “IC50 DPPH” value [2] was 12.0 ± 0.2^c µg/mL, the “IC50 DPPH” value ([2]; listed as 2) was 12.1 µg/mL (≈ 42.6 µM) and the IC50 [2] was 42.3 µM. The “IC50 FRAP” value [3] was 408.6 ± 6.8^b µg/mL and the IC50 [3] was 1440 µM.

In the case of O=C(O)[C@H]1O[C@@H](Oc2cc3oc(-c4ccccc4)cc(=O)c3c(O)c2O)[C@H](O)[C@@H](O)[C@@H]1O [baicalin], the IC50 (xanthine oxidase [5]) is listed as 215 µM.

For COc1c(O)cc(O)c2c(=O)cc(-c3ccccc3)oc12 [wogonin], the IC50 (xanthine oxidase [5]) is given as 157 µM.
